Test results: patent USRE40300E1, “Carbon dioxide enhancement of inhalation therapy” (priority 1999, dated 2008)
Read-outs that look alike come from different tables or passages of the source. Each block holds one compound with its values, some of them ahead of it.

Tests used:
[1] = Tissue distribution and pharmacokinetics of PTX after PTX-DLPC aerosol generated with normal or 5% CO2-enriched air; type: in vivo, mice; settings: for Cmax: lung, inhaled, 10 mg of PTX/ml suspension (nebulized, 30 min aerosol exposure), 30 min, read-out: Pulmonary paclitaxel Cmax
B16-F10 lung metastasis = test: Inhibition of B16-F10 lung metastasis by aerosol delivery; type: in vivo, C57BL/6 mice; settings: 5% CO2 alone, data not shown
Description: B16-F10 melanoma cell line was obtained from Division of Cancer treatment and Diagnosis Center (DCTDC, NCE, Frederick, Md.) and cultivated in DMEM supplemented with 10% fetal calf serum. […] Twenty-five thousand B16-F10 cells in 200 μl of media are injected per mice via the tail vein of C57BL/6 mice. Lung metastases are visually detected within 2 weeks after inoculation of cells. The cells were used at passages 3-12.
C57BL/6 mice were injected intravenously with 25,000 B16-F10 cells on day 0. The mice were treated with polyethylenimine-p53 aerosol complexes generated using 5% CO2 twice a week starting the day after inoculation of the cancer cells into the mice (on days 1, 4, 8, 11, 15, 18, and 22) with the last treatment on day 22 postinjection (a total of seven aerosol exposures). Control groups included untreated mice, mice treated with polyethyleneimine or with polyethylenimine-Luc aerosol complexes. The control animals start dying around day 24 post tumor cell inoculation, which is when the therapy was stopped and the experiment terminated. The dosage of treatment was 2 mg plasmid/10 ml of aerosolized solution at a polyethyleneimine:DNA (N:P) ratio of 10:1. This is the total amount of DNA aerosolized to the mice. […]

[2] = cited from earlier work
[3] = cited from earlier work; for increase in frequency of breathing / increase in minute volumes / increase in tidal volumes: normal humans
[4] = Tissue distribution and pharmacokinetics of CPT after CPT-DLPC aerosol generated with normal or 5% CO2-enriched air; settings: 5% CO2-in-air versus normal air
[5] = inhalation of 5% carbon dioxide
[6] = 5% carbon dioxide for two minutes
[7] = 7.5% carbon dioxide for two minutes

area under the lung-concentration-time curve ([1]; 5% CO2): 33.7 µg·h/g | T1/2α in the lungs ([1]; 5% CO2-air): 0.7 h | T1/2β in the lungs ([1]; 5% CO2-air): 5.1 h | AUC over a 3 hr period, fifth value of list (blood) ([1]; 5% CO2-air, trapezoidal rule): 0.13±0.10 μg PTS-hr/g of tissue | AUC over a 3 hr period, fourth value of list (kidney) ([1]; 5% CO2-air, trapezoidal rule): 2.8±1.5 μg PTS-hr/g of tissue | AUC over a 3 hr period, liver ([1]; 5% CO2-air, trapezoidal rule): 9.8±1.9 μg PTS-hr/g of tissue | AUC over a 3 hr period, lungs ([1]; 5% CO2-air, trapezoidal rule): 34±2 μg PTS-hr/g of tissue | AUC over a 3 hr period, sixth value of list (brain) ([1]; 5% CO2-air, trapezoidal rule): 0.23±0.2 μg PTS-hr/g of tissue | average pulmonary deposition increase ([1]; 5% CO2-in-air versus normal air): 2-4 fold | Cmax ratio 5% CO2-enriched air versus ambient air ([1]; lungs): 4.2 fold | lung AUC ratio 5% CO2 versus normal air ([1]; mouse, in vivo): 5.7 fold | Cmax ([1]; mouse, 5% CO2-enriched air): 23100 ± 4300 ng/g | Cmax ([1]; mouse, ambient air): 5500 ± 200 ng/g | T1/2α in the lungs ([1]; normal air): 0.3 h | T1/2β in the lungs ([1]; normal air): 1.6 h | area under the lung-concentration-time curve ([1]; normal air): 5.9 µg·h/g | levels of paclitaxel in liver, spleen, kidney and blood ([1]; normal air for aerosolization): below detectable levels
Compound: CC(=O)O[C@H]1C(=O)[C@@]2(C)[C@H]([C@H](OC(=O)c3ccccc3)[C@]3(O)C[C@H](OC(=O)[C@H](O)[C@@H](NC(=O)c4ccccc4)c4ccccc4)C(C)=C1C3(C)C)[C@]1(OC(C)=O)CO[C@@H]1C[C@@H]2O [paclitaxel]

Compound: O=C=O [carbon dioxide]
effect on the growth of tumors compared to untreated mice (B16-F10 lung metastasis): no effect | increase in tidal volume ([2]; 5% CO2-enriched air, mammalians, plethysmograph studies): 170-180% | increase in tidal volume [2, 5]: ≤ 192% | increase in frequency of breathing [3, 6]: 6.7% | increase in minute volumes [3, 6]: 34% | increase in tidal volumes [3, 6]: 31% | increase in frequency of breathing [3, 7]: 19% | increase in minute volumes [3, 7]: 75% | increase in tidal volumes [3, 7]: 52% | increase in the minute volume [3, 5]: 3 fold

Compound: CC[C@@]1(O)C(=O)OCc2c1cc1n(c2=O)Cc2cc3ccccc3nc2-1 [camptothecin]
average pulmonary deposition increase [4]: 2-4 fold
